The target of one assay is wild type KRAS(WT) (Homo sapiens, UniProt P01116). Kind of assay: Surface plasmon resonance (SPR) binding to wild type KRAS. The settings on record: SPR Biacore 8K+, Single Cycle Kinetics, 30° C., 10 μM GDP, 1:1 binding model; read-out: Dissociation Constant KD (nM) for Wild Type KRAS. On the technique in general: Surface plasmon resonance follows binding to a sensor surface in real time, without labels.

The target of the next assay is mutant KRAS (G12D) (Homo sapiens, UniProt P01116, G12D). Put plainly: Surface plasmon resonance (SPR) binding to mutant KRAS (G12D). The settings on record: SPR Biacore 8K+, Single Cycle Kinetics, 30° C., 10 μM GDP, 1:1 binding model; read-out: Dissociation Constant KD (nM) for Mutant KRAS (G12D).

Starred links: 1 amine or outer side, 2 acyl side, 3 side chain; linkers in the order of their positions; H or OH if unused. Positions of bridges follow the written chain, without caps; N, C: chain ends. Non-standard residues stand in square brackets, D forms with d. Residues, ends and D or L forms follow the SMILES beside them. *: point of attachment. hPhe(3-Cl-4-CF3) = N[C@@H](CCc1ccc(C(F)(F)F)c(Cl)c1)C(=O)O; X1 = CN([C@@H](CC1CCC(F)(F)CC1)C(=O)[*:2])[*:1]; NMePhe(4-Me) = CN[C@@H](Cc1ccc(C)cc1)C(=O)O; X4 = C#Cc1cccc(C[C@H](N[*:1])C(=O)[*:2])c1; X5 = O=C([C@H](Cc1cccc(F)c1F)N[*:1])[*:2]; Phe(3-I) = N[C@@H](Cc1cccc(I)c1)C(=O)O; X2 = CC(C)=CC[C@H](N[*:1])C(=O)[*:2]; NMeY = CN[C@@H](Cc1ccc(O)cc1)C(=O)O; NMeCha = CN[C@@H](CC1CCCCC1)C(=O)O; X6 = O=C(CN(CCN1CCNCC1)[*:1])[*:2]; X3 = C[C@H](CN(C)[*:1])C(=O)[*:2]; NMeChg = CN[C@H](C(=O)O)C1CCCCC1; NMeF = CN[C@@H](Cc1ccccc1)C(=O)O; Gly(cBu) = N[C@H](C(=O)O)C1CCC1; NMeD = CN[C@@H](CC(=O)O)C(=O)O; NMeL = CN[C@@H](CC(C)C)C(=O)O; NMehSer = CN[C@@H](CCO)C(=O)O; NMeV = CN[C@H](C(=O)O)C(C)C; d(β3hA) = C[C@@H](N)CC(=O)O; NMeS = CN[C@@H](CO)C(=O)O; Pip = O=C(O)[C@@H]1CCCCN1; NMeA = CN[C@@H](C)C(=O)O; NMeAib = CNC(C)(C)C(=O)O; Nle = CCCC[C@H](N)C(=O)O; Piperidide = C1CCN(*)CC1; Ac5c = NC1(C(=O)O)CCCC1; Aze = O=C(O)[C@@H]1CCN1; Sar = CNCC(=O)O

One may read the Kd as the constant that tells how readily two partners part at equilibrium. As to `CC(C)=CC[C@@H]1NC(=O)[C@H](Cc2cccc(I)c2)NC(=O)CN(C)C(=O)[C@H](CC2CCC(F)(F)CC2)N(C)C(=O)[C@@H]2CCN2C(=O)[C@@H]2CCCCN2C(=O)[C@H](C2CCC2)NC(=O)[C@H](CC(C)C)N(C)C(=O)C[C@@H](C(=O)N2CCCCC2)N(C)C(=O)[C@H](CC(C)C)NC(=O)[C@H](Cc2ccccc2)N(C)C1=O` [Compound 2, (1S,6S,9S,15S,18S,21S,24S,27S,31S,34S)-21-benzyl-34-cyclobutyl-9-[(4,4-difluorocyclohexyl)methyl]-15-[(3-iodophenyl)methyl]-24,31-diisobutyl-8,11,20,26,30-pentamethyl-18-(3-methylbut-2-enyl)-27-(piperidine-1-carbonyl)-3,8,11,14,17,20,23,26,30,33,36-undecazatricyclo[34.4.0.03,6]tetracontane-2,7,10,13,16,19,22,25,29,32,35-undecanone] ([NMeL][Gly(cBu)][Pip][Aze][X1][Sar][Phe(3-I)][X2][NMeF]L[NMeD]-Piperidide; lactam N-11), the Kd on wild type KRAS(WT) was determined as 44 nM; on mutant KRAS (G12D), 4.4 nM.
In the same order, the values of `CCCC[C@@H]1NC(=O)[C@H](Cc2cccc(I)c2)NC(=O)CN(C)C(=O)[C@H](Cc2ccc(C)cc2)N(C)C(=O)CN(C)C(=O)CN(C)C(=O)[C@H]([C@@H](C)CC)NC(=O)[C@H](CCOC)N(C)C(=O)C[C@@H](C(=O)N2CCCCC2)N(C)C(=O)[C@H](CC(C)C)NC(=O)[C@H](COC)N(C)C1=O` [Compound 3, (3S,6S,9S,12S,18S,27S,30S,34S)-9-butyl-12-[(3-iodophenyl)methyl]-3-isobutyl-30-(2-methoxyethyl)-6-(methoxymethyl)-1,7,16,19,22,25,31-heptamethyl-27-[(1S)-1-methylpropyl]-34-(piperidine-1-carbonyl)-18-(p-tolylmethyl)-1,4,7,10,13,16,19,22,25,28,31-undecazacyclotetratriacontane-2,5,8,11,14,17,20,23,26,29,32-undecanone] ([NMehSer](Me)I[Sar][Sar][NMePhe(4-Me)][Sar][Phe(3-I)][Nle][NMeS](Me)L[NMeD]-Piperidide; lactam N-11) are 43 nM and 2.9 nM.
For `C#Cc1cccc(C[C@@H]2NC(=O)CN(C)C(=O)[C@H](CC3CCCCC3)N(C)C(=O)CN(C)C(=O)CN(C)C(=O)[C@H]([C@@H](C)CC)NC(=O)[C@H](C)CN(C)C(=O)C[C@@H](C(=O)N3CCCCC3)N(C)C(=O)[C@H](CC(C)C)NC(=O)C(C)(C)N(C)C(=O)[C@H](Cc3ccc(OC)cc3)NC2=O)c1` [Compound 4, (3S,9S,12S,18S,27S,30R,35S)-18-(cyclohexylmethyl)-12-[(3-ethynylphenyl)methyl]-3-isobutyl-9-[(4-methoxyphenyl)methyl]-1,6,6,7,16,19,22,25,30,32-decamethyl-27-[(1S)-1-methylpropyl]-35-(piperidine-1-carbonyl)-1,4,7,10,13,16,19,22,25,28,32-undecazacyclopentatriacontane-2,5,8,11,14,17,20,23,26,29,33-undecaone] ([X3]I[Sar][Sar][NMeCha][Sar][X4]Y(Me)[NMeAib]L[NMeD]-Piperidide; lactam N-11), in that order: 23 nM and 1.5 nM.
Take `CCCC[C@@H]1NC(=O)[C@H](Cc2cccc(F)c2F)NC(=O)CN(C)C(=O)[C@H](Cc2ccc(OC)cc2)N(C)C(=O)[C@@H]2CCN2C(=O)[C@@H]2CCCCN2C(=O)[C@H](C2CCC2)NC(=O)[C@H](CC(C)C)N(C)C(=O)C[C@@H](C(=O)N2CCCCC2)N(C)C(=O)[C@H](CC(C)C)NC(=O)C(C)(C)N(C)C1=O` [Compound 5, (1S,6S,9S,15S,18S,24S,27S,31S,34S)-18-butyl-34-cyclobutyl-15-[(2,3-difluorophenyl)methyl]-24,31-diisobutyl-9-[(4-methoxyphenyl)methyl]-8,11,20,21,21,26,30-heptamethyl-27-(piperidine-1-carbonyl)-3,8,11,14,17,20,23,26,30,33,36-undecazatricyclo[34.4.0.03,6]tetracontane-2,7,10,13,16,19,22,25,29,32,35-undecaone] ([NMeL][Gly(cBu)][Pip][Aze][NMeY](Me)[Sar][X5][Nle][NMeAib]L[NMeD]-Piperidide; lactam N-11): the Kd worked out at 19 nM at wild type KRAS(WT) and 3.6 nM at mutant KRAS (G12D).
In the same order, the values of `CC[C@H](C)[C@@H]1NC(=O)[C@H](CC(C)C)N(C)C(=O)C[C@@H](C)NC(=O)[C@H](C(C)C)N(C)C(=O)C2(CCCC2)NC(=O)[C@@H]2CCCN2C(=O)[C@H](CCc2ccc(C(F)(F)F)c(Cl)c2)NC(=O)CN(C)C(=O)[C@H](CC2CCCCC2)N(C)C(=O)[C@@H]2CCN2C(=O)[C@H](C)N(C)C1=O` [Compound 6, (3S,9S,12S,17S,20S,23S,27R,30S,36S)-3-[2-[3-chloro-4-(trifluoromethyl)phenyl]ethyl]-9-(cyclohexylmethyl)-23-isobutyl-30-isopropyl-7,10,17,18,24,27,31-heptamethyl-20-[(1S)-1-methylpropyl]spiro[1,4,7,10,15,18,21,24,28,31,34-undecazatricyclo[34.3.0.012,15]nonatriacontane-33,1′-cyclopentane]-2,5,8,11,16,19,22,25,29,32,35-undecaone] (cyclo([Ac5c][NMeV][d(β3hA)][NMeL]I[NMeA][Aze][NMeCha][Sar][hPhe(3-Cl-4-CF3)]P)) are 16 nM and 21 nM.
As for `CC[C@H](C)[C@@H]1NC(=O)[C@H](CC(C)C)N(C)C(=O)C[C@@H](C(=O)N2CCCCC2)N(C)C(=O)[C@H](C2CCCCC2)N(C)C(=O)C2(CCCC2)NC(=O)CN(CCN2CCNCC2)C(=O)[C@H](CCc2ccc(C(F)(F)F)c(Cl)c2)NC(=O)CN(C)C(=O)[C@H](CC2CCCCC2)N(C)C(=O)CN(C)C(=O)CN(C)C1=O` [Compound 7, (11S,17S,26S,29S,33S,36S)-11-[2-[3-chloro-4-(trifluoromethyl)phenyl]ethyl]-36-cyclohexyl-17-(cyclohexylmethyl)-29-isobutyl-15,18,21,24,30,34,37-heptamethyl-26-[(1 S)-1-methylpropyl]-9-(2-piperazine-1-ylethyl)-33-(piperidine-1-carbonyl)-6,9,12,15,18,21,24,27,30,34,37-undecazaspiro[4.33]octatriacontane-7,10,13,16,19,22,25,28,31,35,38-undecaone, reference compound] ([NMeL]I[Sar][Sar][NMeCha][Sar][hPhe(3-Cl-4-CF3)][X6][Ac5c][NMeChg][NMeD]-Piperidide; lactam N-11), the Kd on wild type KRAS(WT) worked out at 0.94 nM; on mutant KRAS (G12D), 0.18 nM.

Values taken from patent US20240239842A1 (CHUGAI SEIYAKU KABUSHIKI KAISHA, priority 2021, published 2024).
